Test results taken from PMC12457078, “Inhibition of soluble epoxide hydrolase in endotoxin induced pig lung injury” (Frontiers in Pharmacology, 2025).
pIC50: −log10 of the molar value. Read-outs that look alike come from different tables or passages of the source.

Tests used:
[1] = target: T1, Recombinant porcine sEH (Sus scrofa, UniProt Q6Q2C2); assay: fluorescent activity assay (MNPC substrate), sEH inhibition potency; assay type: biochemical, pig
T1 construct: made in house
T1 sequence (Q6Q2C2 1-555): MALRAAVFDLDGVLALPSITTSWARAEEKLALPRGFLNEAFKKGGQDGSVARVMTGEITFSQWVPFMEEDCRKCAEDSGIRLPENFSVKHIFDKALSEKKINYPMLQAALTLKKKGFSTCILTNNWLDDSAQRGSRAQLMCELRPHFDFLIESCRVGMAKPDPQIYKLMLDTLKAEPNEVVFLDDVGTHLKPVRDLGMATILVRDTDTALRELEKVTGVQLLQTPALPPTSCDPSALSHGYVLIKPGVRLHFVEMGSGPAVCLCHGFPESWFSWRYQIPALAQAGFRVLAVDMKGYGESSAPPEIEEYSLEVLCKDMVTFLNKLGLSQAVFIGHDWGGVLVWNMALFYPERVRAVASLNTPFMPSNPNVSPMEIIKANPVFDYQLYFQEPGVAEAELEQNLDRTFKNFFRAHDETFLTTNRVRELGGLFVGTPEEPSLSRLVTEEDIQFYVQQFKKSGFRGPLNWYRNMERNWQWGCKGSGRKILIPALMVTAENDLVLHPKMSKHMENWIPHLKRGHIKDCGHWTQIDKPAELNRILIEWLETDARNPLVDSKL

[2] = liver microsomal assay (metabolic stability); assay type: in vitro ADME, pig; settings: pig liver microsomes, NADPH generating system, 35 min
Description: To further characterize the inhibitors with regard to suitability for administration in pigs, a microsomal assay was used to determine metabolic stability ([Ackley et al., 2004]) for a subset of eight inhibitors chosen for their potency and availability. Microsomal preparations from pig liver were purchased from XenoTech (Kansas City, KS, US). Microsomes, buffer and NADPH generating system were combined, and then the inhibitor was added. The reaction was stopped after 35 min with ice cold acetonitrile containing internal standard (12-[[(cyclohexylamino)carbonyl]amino]-dodecanoic acid). The amount left of parent inhibitor was determined with LC-MS/MS.

[3] = 5 min preincubation 37 °C, MNPC 5 µM, read-out: Pig sEH IC50

Row | SMILES | Liver microsomal stability: Amount remaining after 35 min (% of initial) [2] | pIC50 [1, 3] | pIC50 [1]
1 | CCC(C)C(=O)N1CCC(NC(=O)Nc2ccc(OC(F)(F)F)cc2)CC1 (centres unmarked) [Compound 2385] | 55 ± 3 % of initial | – | 7.72
2 | O=C(Nc1cccc2ccccc12)NC1CCCCC1 [Compound 59] | – | 6.98 | –
3 | CCCC(=O)N1CCC(NC(=O)Nc2ccc(C(F)(F)F)cc2)CC1 [Compound 2413] | – | 7.22 | –
4 | CCC(C)C(=O)N1CCC(NC(=O)Nc2cc(C(F)(F)F)cc(C(F)(F)F)c2)CC1 (centres unmarked) [Compound 2421] | – | 6.97 | –
5 | O=C(O)CCCCCCCCCCCNC(=O)NC12CC3CC(CC(C3)C1)C2 [Compound 700] | 1 ± 0.1 % of initial | – | –
6 | CC(=O)N1CCC(NC(=O)Nc2ccc(OC(F)(F)F)cc2)CC1 [Compound 1555] | – | – | 6.71
7 | CNc1nc(C)nc(N[C@H]2CCC[C@@H](C(=O)NCc3ccc(C#N)cc3C(F)(F)F)C2)n1 [Compound 2946] | 66 ± 1 % of initial | 7.32 | –
8 | O=C(Nc1ccc(C(F)(F)F)cc1)NC1CCN(C(=O)CC(F)(F)F)CC1 [Compound 2714] | – | 7.36 | –
9 | CC(C)C(=O)N1CCC(NC(=O)Nc2ccc(C(F)(F)F)cc2)CC1 [Compound 2389] | – | 7.15 | –

More lines, main results first:

Row | Liver microsomal stability: Amount remaining after 35 min (% of initial) [2] | pIC50 [1, 3] | SMILES | pIC50 [1]
10 | – | 7.40 | O=C(O)CCCCCCCCCCCNC(=O)Nc1ccc(OC(F)(F)F)cc1 [Compound 1663] | –
11 | – | 7.72 | O=C(Nc1ccc(OC(F)(F)F)cc1)N[C@H]1CC[C@@H](Oc2ccc(C(=O)O)cc2)CC1 [Compound 1686] | –
12 | 78 ± 3 % of initial | 7.47 | O=C(Nc1ccc(OC(F)(F)F)cc1)N[C@H]1CC[C@H](Oc2ccc(C(=O)O)cc2)CC1 [Compound 1728] | –
13 | – | 8.30 | COC(=O)c1ccc(NC(=O)NC23CC4CC(CC(C4)C2)C3)cc1O [Compound 1671] | –
14 | – | 7.42 | CC(C)C(=O)N1CCC(NC(=O)Nc2ccc(OC(F)(F)F)cc2)CC1 [Compound 2422] | –
